Results published in PubChem BioAssay AID1963451 (Molecular Pharmacology Branch, DTP, NCI, 2024).

Tested on: 521955-158-R6-J3-PDC complex spheroid growth, % test/control
Assay: Anticancer human tumor 521955-158-R6-J3-PDC patient-derived pancreatic carcinoma cell line growth inhibition [Asc]
Conditions: for IC50: curve of first compound; for viability, T/C: stronger effect = lower value
In short: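 Complex spheroids combining tumor cells with HUVEC endothelial cells and human MSCs, at 37 degrees C, 5% CO2; agents tested alone or combined, half-log dilutions from at or near clinical Cmax, or 10 microM if Cmax unknown.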
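Further: spheroids exposed to compounds for 7 days.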
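Wherever viability, T/C is given: 100% = DMSO vehicle control wells.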

**Q.** For `C#Cc1c(F)ccc2cc(O)cc(-c3ncc4c(N5CC6CCC(C5)N6)nc(OCC56CCCN5CC(F)C6)nc4c3F)c12` (configuration not stated) + CCN1C(C(=O)NC23CCC(C(=O)O)(CC2)CC3)C(c2cccc(Cl)c2F)C2(C(=O)Nc3cc(Cl)ccc32)C12CCCCC2, which IC50 (second compound 0.00949 µM) is on record?
**A.** 518 nM

**Q.** What about the IC50 (second compound 0.03 µM) of the same compound?
**A.** 329 nM

**Q.** What about the IC50 (second compound 0.0949 µM) of the same compound?
**A.** 214 nM

**Q.** And the IC50 (second compound 0.3 µM)?
**A.** 223 nM

**Q.** What about the IC50 (second compound 0.949 µM) of the same compound?
**A.** 903 nM

**Q.** And the IC50 (second compound 3 µM)?
**A.** < 31.6 nM

**Q.** What about the viability, T/C (second compound 0.00949 µM, first compound 0.0316 µM) of the same compound?
**A.** 76.9%

**Q.** What about the viability, T/C (second compound 0.00949 µM, first compound 0.1 µM) of the same compound?
**A.** 60.5%

**Q.** And the viability, T/C (second compound 0.00949 µM, first compound 0.316 µM)?
**A.** 50.2%

**Q.** What about the viability, T/C (second compound 0.00949 µM, first compound 1 µM) of the same compound?
**A.** 49.1%

**Q.** And the viability, T/C (second compound 0.00949 µM, first compound 3.16 µM)?
**A.** 39.3%

**Q.** And the viability, T/C (second compound 0.00949 µM, first compound 10 µM)?
**A.** 28.2%

**Q.** And the viability, T/C (second compound 0.03 µM, first compound 0.0316 µM)?
**A.** 72.2%

**Q.** And the viability, T/C (second compound 0.03 µM, first compound 0.1 µM)?
**A.** 58%

**Q.** What about the viability, T/C (second compound 0.03 µM, first compound 0.316 µM) of the same compound?
**A.** 47.1%

**Q.** And the viability, T/C (second compound 0.03 µM, first compound 1 µM)?
**A.** 45.4%

**Q.** And the viability, T/C (second compound 0.03 µM, first compound 3.16 µM)?
**A.** 41.4%

**Q.** What about the viability, T/C (second compound 0.03 µM, first compound 10 µM) of the same compound?
**A.** 31.7%

**Q.** What about the viability, T/C (second compound 0.0949 µM, first compound 0.0316 µM) of the same compound?
**A.** 81.6%

**Q.** And the viability, T/C (second compound 0.0949 µM, first compound 0.1 µM)?
**A.** 55.8%

**Q.** And the viability, T/C (second compound 0.0949 µM, first compound 0.316 µM)?
**A.** 46.5%

**Q.** What about the viability, T/C (second compound 0.0949 µM, first compound 1 µM) of the same compound?
**A.** 40.2%

**Q.** What about the viability, T/C (second compound 0.0949 µM, first compound 3.16 µM) of the same compound?
**A.** 43.6%

**Q.** What about the viability, T/C (second compound 0.0949 µM, first compound 10 µM) of the same compound?
**A.** 30.3%

**Q.** What about the viability, T/C (second compound 0.3 µM, first compound 0.0316 µM) of the same compound?
**A.** 72.1%

**Q.** And the viability, T/C (second compound 0.3 µM, first compound 0.1 µM)?
**A.** 65.9%

**Q.** And the viability, T/C (second compound 0.3 µM, first compound 0.316 µM)?
**A.** 42.4%

**Q.** And the viability, T/C (second compound 0.3 µM, first compound 1 µM)?
**A.** 40.4%

**Q.** And the viability, T/C (second compound 0.3 µM, first compound 3.16 µM)?
**A.** 39.2%

**Q.** What about the viability, T/C (second compound 0.3 µM, first compound 10 µM) of the same compound?
**A.** 29.3%

**Q.** And the viability, T/C (second compound 0.949 µM, first compound 0.0316 µM)?
**A.** 68.3%

**Q.** What about the viability, T/C (second compound 0.949 µM, first compound 0.1 µM) of the same compound?
**A.** 66%

**Q.** And the viability, T/C (second compound 0.949 µM, first compound 0.316 µM)?
**A.** 51%

**Q.** And the viability, T/C (second compound 0.949 µM, first compound 1 µM)?
**A.** 53%

**Q.** And the viability, T/C (second compound 0.949 µM, first compound 3.16 µM)?
**A.** 41.7%

**Q.** What about the viability, T/C (second compound 0.949 µM, first compound 10 µM) of the same compound?
**A.** 34.2%

**Q.** What about the viability, T/C (second compound 3 µM, first compound 0.0316 µM) of the same compound?
**A.** 57.9%

**Q.** What about the viability, T/C (second compound 3 µM, first compound 0.1 µM) of the same compound?
**A.** 48.4%

**Q.** And the viability, T/C (second compound 3 µM, first compound 0.316 µM)?
**A.** 51%

**Q.** And the viability, T/C (second compound 3 µM, first compound 1 µM)?
**A.** 41.3%

**Q.** And the viability, T/C (second compound 3 µM, first compound 3.16 µM)?
**A.** 50.4%

**Q.** And the viability, T/C (second compound 3 µM, first compound 10 µM)?
**A.** 25.7%
